Laboratory results from US9492471B2, “Methods of treating a disease or disorder associated with Bruton'S Tyrosine Kinase” (Celgene Avilomics Research, Inc., priority 2013, dated 2016).
Read-outs that look alike come from different tables or passages of the source.

How the values were obtained:
Assay in all cases: HotSpot kinase profiling
Format in all cases: biochemical
[1] = target: T1, NEK2 (Homo sapiens, UniProt P51955)
T1 construct: purchased Reaction Biology Corp
T1 sequence (P51955 1-445): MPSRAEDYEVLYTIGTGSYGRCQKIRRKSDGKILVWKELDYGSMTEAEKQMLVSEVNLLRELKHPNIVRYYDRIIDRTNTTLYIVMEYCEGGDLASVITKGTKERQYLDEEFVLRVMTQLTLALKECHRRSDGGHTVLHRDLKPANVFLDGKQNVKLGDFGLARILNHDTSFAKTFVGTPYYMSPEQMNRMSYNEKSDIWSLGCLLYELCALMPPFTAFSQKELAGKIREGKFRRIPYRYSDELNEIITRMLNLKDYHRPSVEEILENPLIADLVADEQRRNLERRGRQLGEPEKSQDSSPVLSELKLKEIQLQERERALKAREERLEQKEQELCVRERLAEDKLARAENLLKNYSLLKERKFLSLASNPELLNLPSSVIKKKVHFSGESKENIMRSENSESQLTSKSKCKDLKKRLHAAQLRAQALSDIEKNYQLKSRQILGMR
Procedure, shortened: (§1)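 Radio-isotope P81 filtration format. Substrate + required cofactors in reaction buffer, kinase added, 2 h RT. Stop, wash with 0.1% phosphoric acid, detect. % inhibition vs DMSO; mean of duplicates where repeated.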

[2] = target: T2, CDK2/cyclin A (Homo sapiens, UniProt P24941)
T2 construct: purchased Reaction Biology Corp
Procedure, shortened: as §1

[3] = target: T3, HGK/MAP4K4 (Homo sapiens, UniProt O95819)
T3 construct: purchased Reaction Biology Corp
Procedure, shortened: as §1

[4] = target: T4, ALK5/TGFBR1 (Homo sapiens, UniProt P36897)
T4 construct: purchased Reaction Biology Corp
T4 sequence (P36897 34-503): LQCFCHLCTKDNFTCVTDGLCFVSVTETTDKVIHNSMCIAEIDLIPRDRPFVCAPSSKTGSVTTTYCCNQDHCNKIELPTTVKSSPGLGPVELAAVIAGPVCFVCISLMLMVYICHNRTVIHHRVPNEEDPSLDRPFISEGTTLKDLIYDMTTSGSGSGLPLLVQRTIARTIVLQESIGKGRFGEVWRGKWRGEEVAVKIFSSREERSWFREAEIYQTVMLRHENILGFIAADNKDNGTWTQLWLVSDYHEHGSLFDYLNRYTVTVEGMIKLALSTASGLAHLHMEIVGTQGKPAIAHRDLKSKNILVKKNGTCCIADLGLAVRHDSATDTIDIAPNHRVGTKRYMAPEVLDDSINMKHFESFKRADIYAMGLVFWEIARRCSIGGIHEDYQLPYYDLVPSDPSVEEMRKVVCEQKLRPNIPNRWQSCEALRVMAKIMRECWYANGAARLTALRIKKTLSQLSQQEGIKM
Procedure, shortened: as §1

[5] = target: T5, DCAMKL1 (Homo sapiens, UniProt O15075)
T5 construct: purchased Reaction Biology Corp
T5 sequence (O15075 1-740): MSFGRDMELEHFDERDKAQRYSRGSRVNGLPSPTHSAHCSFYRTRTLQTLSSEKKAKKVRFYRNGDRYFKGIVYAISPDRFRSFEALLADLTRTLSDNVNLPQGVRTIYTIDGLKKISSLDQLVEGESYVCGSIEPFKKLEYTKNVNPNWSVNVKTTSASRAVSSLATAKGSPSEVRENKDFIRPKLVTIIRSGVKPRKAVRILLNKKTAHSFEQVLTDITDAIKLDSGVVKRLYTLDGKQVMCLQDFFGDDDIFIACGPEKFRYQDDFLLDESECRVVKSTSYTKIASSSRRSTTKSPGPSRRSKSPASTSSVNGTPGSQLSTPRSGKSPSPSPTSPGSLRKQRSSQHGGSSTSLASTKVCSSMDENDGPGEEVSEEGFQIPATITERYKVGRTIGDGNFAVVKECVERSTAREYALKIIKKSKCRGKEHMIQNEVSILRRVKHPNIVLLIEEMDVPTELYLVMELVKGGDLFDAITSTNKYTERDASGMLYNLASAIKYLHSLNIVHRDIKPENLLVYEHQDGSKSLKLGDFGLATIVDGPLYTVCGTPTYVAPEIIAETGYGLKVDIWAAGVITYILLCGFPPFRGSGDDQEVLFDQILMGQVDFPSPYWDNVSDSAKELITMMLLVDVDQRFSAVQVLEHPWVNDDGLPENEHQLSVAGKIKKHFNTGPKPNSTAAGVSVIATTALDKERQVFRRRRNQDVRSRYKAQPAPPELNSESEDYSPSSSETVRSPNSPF
Procedure, shortened: as §1

[6] = read-out: % Enzyme Activity (relative to DMSO controls) Run 1
[7] = read-out: % Enzyme Activity (relative to DMSO controls) Run 2

T3 sequence (O95819 whole entry): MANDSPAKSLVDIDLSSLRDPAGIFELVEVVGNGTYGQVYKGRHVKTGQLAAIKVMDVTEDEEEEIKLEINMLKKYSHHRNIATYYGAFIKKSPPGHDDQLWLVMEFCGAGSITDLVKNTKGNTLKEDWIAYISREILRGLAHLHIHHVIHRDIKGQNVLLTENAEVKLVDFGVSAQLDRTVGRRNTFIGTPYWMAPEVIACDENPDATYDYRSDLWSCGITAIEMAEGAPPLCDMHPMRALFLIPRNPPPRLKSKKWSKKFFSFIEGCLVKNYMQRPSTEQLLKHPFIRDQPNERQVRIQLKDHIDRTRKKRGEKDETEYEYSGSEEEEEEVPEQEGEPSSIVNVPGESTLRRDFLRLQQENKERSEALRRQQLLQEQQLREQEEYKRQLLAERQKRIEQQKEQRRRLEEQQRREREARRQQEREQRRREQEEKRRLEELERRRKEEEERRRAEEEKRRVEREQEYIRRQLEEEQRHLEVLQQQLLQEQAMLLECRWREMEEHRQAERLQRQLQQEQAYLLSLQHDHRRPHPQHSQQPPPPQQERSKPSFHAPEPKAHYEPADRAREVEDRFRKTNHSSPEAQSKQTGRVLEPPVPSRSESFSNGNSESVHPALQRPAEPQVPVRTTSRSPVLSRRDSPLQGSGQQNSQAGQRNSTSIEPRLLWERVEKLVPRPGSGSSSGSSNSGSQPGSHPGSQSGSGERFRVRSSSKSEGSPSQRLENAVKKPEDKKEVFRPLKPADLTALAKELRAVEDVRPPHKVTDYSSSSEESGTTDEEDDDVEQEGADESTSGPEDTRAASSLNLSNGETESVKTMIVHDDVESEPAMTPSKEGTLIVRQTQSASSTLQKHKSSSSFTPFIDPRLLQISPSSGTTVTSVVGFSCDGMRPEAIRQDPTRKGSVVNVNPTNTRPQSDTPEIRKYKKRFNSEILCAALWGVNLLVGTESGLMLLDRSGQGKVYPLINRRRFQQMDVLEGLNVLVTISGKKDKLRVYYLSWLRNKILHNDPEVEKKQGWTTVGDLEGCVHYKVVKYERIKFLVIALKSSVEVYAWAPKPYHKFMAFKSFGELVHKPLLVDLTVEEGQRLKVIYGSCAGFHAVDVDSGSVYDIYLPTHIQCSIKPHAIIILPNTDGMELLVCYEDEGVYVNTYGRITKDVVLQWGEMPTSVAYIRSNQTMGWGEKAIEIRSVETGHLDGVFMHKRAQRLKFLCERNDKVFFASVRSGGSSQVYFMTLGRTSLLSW

Structure (SMILES): C=CC(=O)Nc1cccc(Nc2nc(Nc3ccc(OCCOC)c(F)c3)ncc2F)c1 [Compound 2]
- inhibition at 3 µM [1]: -4.44%
- remaining activity at 3 µM [1, 6]: 102%
- remaining activity at 3 µM [1, 7]: 107%
- inhibition at 3 µM [2]: 13.7%
- remaining activity at 3 µM [2, 6]: 85.8%
- remaining activity at 3 µM [2, 7]: 86.9%
- inhibition at 3 µM [3]: 1.27%
- remaining activity at 3 µM [3, 6]: 98.9%
- remaining activity at 3 µM [3, 7]: 98.6%
- inhibition at 3 µM [4]: -8.03%
- remaining activity at 3 µM [4, 6]: 106%
- remaining activity at 3 µM [4, 7]: 110%
- inhibition at 3 µM [5]: 2.02%
- remaining activity at 3 µM [5, 6]: 98.4%
- remaining activity at 3 µM [5, 7]: 97.5%
